Results taken from ChEMBL document CHEMBL3885861, “Open TG-GATES”.

Species on record: Rattus norvegicus
Test: Open TG-GATES - Regimen: Daily Repeat
Type: toxicity, organism-based, Sprague-Dawley
Design: regimen Daily Repeat, gender Male, age 6 weeks
Conditions: in vivo, po, 0 mg/kg, route gavage, dose level Control; for APTT / Bas / Eos / Fbg / Hb / Ht / Lym / MCH / MCHC / MCV / Mono / Neu / PT / Plat / RBC / Ret / WBC: tissue Blood; for KIDNEY_L / KIDNEY_R / KIDNEY_TOTAL: tissue Kidney; for LIVER: tissue Liver; for A/G / ALP / ALT / AST / BUN / CRE / Ca / Cl / DBIL / GLC / IP / K / LDH / Na / PL / RALB / TBIL / TC / TG / TP / gamma-GTP: tissue Plasma

CC(C)(S)[C@@H](N)C(=O)O [PENICILLAMINE]
TERMINAL_BW (72 h, time 3 day): 235.9 g | APTT (72 h, time 3 day): 15.9 s | Bas (72 h, time 3 day): 0.2% | Eos (72 h, time 3 day): 0.6% | Fbg (72 h, time 3 day): 305 mg/dL | Hb (72 h, time 3 day): 13.7 g/dL | Ht (72 h, time 3 day): 41.9% | Lym (72 h, time 3 day): 75.8% | MCH (72 h, time 3 day): 21.1 pg | MCHC (72 h, time 3 day): 32.7% | MCV (72 h, time 3 day): 64.6 fL | Mono (72 h, time 3 day): 3% | Neu (72 h, time 3 day): 19.6% | PT (72 h, time 3 day): 13.8 s | Plat (72 h, time 3 day): 131.2 x10_4/uL | RBC (72 h, time 3 day): 648.8 x10_4/ul | Ret (72 h, time 3 day): 7.1% | WBC (72 h, time 3 day): 113.2 x10_2/uL | KIDNEY_L (72 h, time 3 day): 0.9 g | KIDNEY_R (72 h, time 3 day): 0.9 g | KIDNEY_TOTAL (72 h, time 3 day): 1.9 g | LIVER (72 h, time 3 day): 11.2 g | A/G (72 h, time 3 day): 0.9 | ALP (72 h, time 3 day): 1527 IU/L | ALT (72 h, time 3 day): 43.4 IU/L | AST (72 h, time 3 day): 69 IU/L | BUN (72 h, time 3 day): 14.6 mg/dL | CRE (72 h, time 3 day): 0.2 mg/dL | Ca (72 h, time 3 day): 11.1 mg/dL | Cl (72 h, time 3 day): 106.2 meq/L | DBIL (72 h, time 3 day): 0.014 mg/dL | GLC (72 h, time 3 day): 177.8 mg/dL | IP (72 h, time 3 day): 6.8 mg/dL | K (72 h, time 3 day): 4.1 meq/L | LDH (72 h, time 3 day): 84.4 IU/L | Na (72 h, time 3 day): 144.2 meq/L | PL (72 h, time 3 day): 171.8 mg/dL | RALB (72 h, time 3 day): 2.8 g/dL | TBIL (72 h, time 3 day): 0.018 mg/dL | TC (72 h, time 3 day): 90.2 mg/dL | TG (72 h, time 3 day): 118.8 mg/dL | TP (72 h, time 3 day): 5.8 g/dL | gamma-GTP (72 h, time 3 day): 1 IU/L | TERMINAL_BW ([…], time 7 day): 275.3 g | TERMINAL_BW ([…], time 14 day): 335.9 g | TERMINAL_BW ([…], time 28 day): 405.5 g | APTT ([…], time 7 day): 17.9 s | Bas ([…], time 7 day): 0% | Eos ([…], time 7 day): 1% | Fbg ([…], time 7 day): 320.4 mg/dL | Hb ([…], time 7 day): 14.2 g/dL | Ht ([…], time 7 day): 43.2% | Lym ([…], time 7 day): 72.8% | MCH ([…], time 7 day): 21 pg | MCHC ([…], time 7 day): 32.8% | MCV ([…], time 7 day): 64.1 fL | Mono ([…], time 7 day): 2.8% | Neu ([…], time 7 day): 22.4% | PT ([…], time 7 day): 13.9 s | Plat ([…], time 7 day): 121.1 x10_4/uL | RBC ([…], time 7 day): 674.8 x10_4/ul | Ret ([…], time 7 day): 5.9% | WBC ([…], time 7 day): 98.3 x10_2/uL | APTT ([…], time 14 day): 19.2 s | Bas ([…], time 14 day): 0% | Eos ([…], time 14 day): 1.2% | Fbg ([…], time 14 day): 292.4 mg/dL | Hb ([…], time 14 day): 14.8 g/dL | Ht ([…], time 14 day): 43.7% | Lym ([…], time 14 day): 80.4% | MCH ([…], time 14 day): 20.4 pg | MCHC ([…], time 14 day): 33.9% | MCV ([…], time 14 day): 60.2 fL | Mono ([…], time 14 day): 2% | Neu ([…], time 14 day): 15.8% | PT ([…], time 14 day): 14.2 s | Plat ([…], time 14 day): 122.3 x10_4/uL | RBC ([…], time 14 day): 724.8 x10_4/ul | Ret ([…], time 14 day): 4.5% | WBC ([…], time 14 day): 90.4 x10_2/uL | APTT ([…], time 28 day): 18.4 s | Bas ([…], time 28 day): 0% | Eos ([…], time 28 day): 1.4% | Fbg ([…], time 28 day): 300.8 mg/dL | Hb ([…], time 28 day): 15.6 g/dL | Ht ([…], time 28 day): 45.4% | Lym ([…], time 28 day): 79.2% | MCH ([…], time 28 day): 19.8 pg | MCHC ([…], time 28 day): 34.2% | MCV ([…], time 28 day): 58 fL | Mono ([…], time 28 day): 2.2% | Neu ([…], time 28 day): 16.2% | PT ([…], time 28 day): 14.1 s | Plat ([…], time 28 day): 103.8 x10_4/uL | RBC ([…], time 28 day): 783.8 x10_4/ul | Ret ([…], time 28 day): 2.6% | WBC ([…], time 28 day): 93.7 x10_2/uL | KIDNEY_L ([…], time 7 day): 1.1 g | KIDNEY_R ([…], time 7 day): 1.1 g | KIDNEY_TOTAL ([…], time 7 day): 2.2 g | KIDNEY_L ([…], time 14 day): 1.3 g | KIDNEY_R ([…], time 14 day): 1.3 g | KIDNEY_TOTAL ([…], time 14 day): 2.6 g | KIDNEY_L ([…], time 28 day): 1.4 g | KIDNEY_R ([…], time 28 day): 1.4 g | KIDNEY_TOTAL ([…], time 28 day): 2.8 g | LIVER ([…], time 7 day): 13 g | LIVER ([…], time 14 day): 15.3 g | LIVER ([…], time 28 day): 16.3 g | A/G ([…], time 7 day): 0.9 | ALP ([…], time 7 day): 1428 IU/L | ALT ([…], time 7 day): 45.4 IU/L | AST ([…], time 7 day): 68.6 IU/L | BUN ([…], time 7 day): 15 mg/dL | CRE ([…], time 7 day): 0.2 mg/dL | Ca ([…], time 7 day): 10.9 mg/dL | Cl ([…], time 7 day): 105.2 meq/L | DBIL ([…], time 7 day): 0.018 mg/dL | GLC ([…], time 7 day): 189.8 mg/dL | IP ([…], time 7 day): 6.6 mg/dL | K ([…], time 7 day): 4 meq/L | LDH ([…], time 7 day): 71.6 IU/L | Na ([…], time 7 day): 142.2 meq/L | PL ([…], time 7 day): 159 mg/dL | RALB ([…], time 7 day): 2.8 g/dL | TBIL ([…], time 7 day): 0.028 mg/dL | TC ([…], time 7 day): 74.4 mg/dL | TG ([…], time 7 day): 131.2 mg/dL | TP ([…], time 7 day): 5.8 g/dL | gamma-GTP ([…], time 7 day): 0.8 IU/L | A/G ([…], time 14 day): 0.9 | ALP ([…], time 14 day): 1246.2 IU/L | ALT ([…], time 14 day): 41.4 IU/L | AST ([…], time 14 day): 68.2 IU/L | BUN ([…], time 14 day): 16.2 mg/dL | CRE ([…], time 14 day): 0.2 mg/dL | Ca ([…], time 14 day): 10.9 mg/dL | Cl ([…], time 14 day): 105.2 meq/L | DBIL ([…], time 14 day): 0.01 mg/dL | GLC ([…], time 14 day): 189 mg/dL | IP ([…], time 14 day): 6.2 mg/dL | K ([…], time 14 day): 4.2 meq/L | LDH ([…], time 14 day): 107.4 IU/L | Na ([…], time 14 day): 143 meq/L | PL ([…], time 14 day): 155.6 mg/dL | RALB ([…], time 14 day): 2.8 g/dL | TBIL ([…], time 14 day): 0.024 mg/dL | TC ([…], time 14 day): 71.4 mg/dL | TG ([…], time 14 day): 150.4 mg/dL | TP ([…], time 14 day): 6.1 g/dL | gamma-GTP ([…], time 14 day): 0.8 IU/L | A/G ([…], time 28 day): 0.9 | ALP ([…], time 28 day): 945.4 IU/L | ALT ([…], time 28 day): 29.6 IU/L | AST ([…], time 28 day): 58.4 IU/L | BUN ([…], time 28 day): 15.4 mg/dL | CRE ([…], time 28 day): 0.3 mg/dL | Ca ([…], time 28 day): 10.9 mg/dL | Cl ([…], time 28 day): 105.8 meq/L | DBIL ([…], time 28 day): 0.008 mg/dL | GLC ([…], time 28 day): 185 mg/dL | IP ([…], time 28 day): 6 mg/dL | K ([…], time 28 day): 3.6 meq/L | LDH ([…], time 28 day): 51.6 IU/L | Na ([…], time 28 day): 144 meq/L | PL ([…], time 28 day): 147.4 mg/dL | RALB ([…], time 28 day): 2.9 g/dL | TBIL ([…], time 28 day): 0.052 mg/dL | TC ([…], time 28 day): 67.6 mg/dL | TG ([…], time 28 day): 140.8 mg/dL | TP ([…], time 28 day): 6.3 g/dL | gamma-GTP ([…], time 28 day): 1.2 IU/L
